For 29 compounds, CC50 and IC50 results are on record in ChEMBL document CHEMBL4482323, “Novel heterocyclic compound, method for preparing same, and pharmaceutical composition comprising same as active ingredient for preventing or treating cancer” (2017).

Where only a bound is given, the exact number is not on record here.

For one test, the system named is HCT-116. Put plainly: Antiproliferative activity against human HCT116 cells after 48 hrs by CCK8 assay. Type of test: functional. The following applies: HCT-116, 48 h, read-out: LD50 (the source's name). (Tetrazolium assays rely on reduction of a dye to a coloured formazan, in cell work by metabolically active cells.)
The next test concerns the target SUMO-activating enzyme (Homo sapiens, UniProt Q9UBT2). Put plainly: Inhibition of SAE (unknown origin) using recombinant His-tagged human SUMO1 measured after 2 hrs by HTRF assay. Type of test: protein-complex assay. (In TR-FRET formats the signal depends on donor and acceptor labels being close together.)
The test system of another test is THP-1. Put plainly: Antiproliferative activity against human THP1 cells after 48 hrs by CCK8 assay. Type of test: functional. The note with it: THP-1, 48 h, read-out: LD50 (the source's name).
For a further test, the target named is T1, NEDD8 activating enzyme (Homo sapiens, UniProt Q8TBC4).
T1 sequence (Q8TBC4 whole entry): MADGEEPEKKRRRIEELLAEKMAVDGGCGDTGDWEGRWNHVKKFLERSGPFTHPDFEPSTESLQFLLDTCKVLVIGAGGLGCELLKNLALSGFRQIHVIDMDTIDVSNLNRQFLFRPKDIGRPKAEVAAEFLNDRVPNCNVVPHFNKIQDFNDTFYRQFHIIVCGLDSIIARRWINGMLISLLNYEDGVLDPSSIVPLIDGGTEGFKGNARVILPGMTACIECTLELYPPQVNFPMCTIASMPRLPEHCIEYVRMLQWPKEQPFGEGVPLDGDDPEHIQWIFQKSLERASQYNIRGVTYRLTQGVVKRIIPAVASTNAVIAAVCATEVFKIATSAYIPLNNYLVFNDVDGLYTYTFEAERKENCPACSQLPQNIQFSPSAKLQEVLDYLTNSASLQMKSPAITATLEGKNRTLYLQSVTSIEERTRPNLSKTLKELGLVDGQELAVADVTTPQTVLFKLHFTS
T1 sequence (Q13564 whole entry): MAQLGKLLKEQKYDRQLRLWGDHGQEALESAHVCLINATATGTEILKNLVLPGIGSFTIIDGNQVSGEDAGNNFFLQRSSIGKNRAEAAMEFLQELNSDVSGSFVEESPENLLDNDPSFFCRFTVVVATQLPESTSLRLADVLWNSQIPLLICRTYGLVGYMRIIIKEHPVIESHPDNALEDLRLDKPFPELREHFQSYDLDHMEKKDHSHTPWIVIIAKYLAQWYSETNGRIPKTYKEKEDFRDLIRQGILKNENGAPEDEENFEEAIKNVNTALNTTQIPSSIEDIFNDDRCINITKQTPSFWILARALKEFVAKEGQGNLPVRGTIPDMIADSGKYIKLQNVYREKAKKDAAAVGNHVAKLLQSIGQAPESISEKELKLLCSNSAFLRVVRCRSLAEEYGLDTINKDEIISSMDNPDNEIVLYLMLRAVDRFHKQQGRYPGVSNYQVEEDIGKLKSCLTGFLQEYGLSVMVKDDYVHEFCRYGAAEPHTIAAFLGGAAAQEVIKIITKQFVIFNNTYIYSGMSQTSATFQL
Description: Inhibition of NAE (unknown origin) using GST-tagged Ubc12 and Flag-tagged Nedd8 measured after 2 hrs by TR-FRET assay. Type of test: protein-complex assay.

SUMO-activating enzyme, sequence (Q9UBE0 whole entry): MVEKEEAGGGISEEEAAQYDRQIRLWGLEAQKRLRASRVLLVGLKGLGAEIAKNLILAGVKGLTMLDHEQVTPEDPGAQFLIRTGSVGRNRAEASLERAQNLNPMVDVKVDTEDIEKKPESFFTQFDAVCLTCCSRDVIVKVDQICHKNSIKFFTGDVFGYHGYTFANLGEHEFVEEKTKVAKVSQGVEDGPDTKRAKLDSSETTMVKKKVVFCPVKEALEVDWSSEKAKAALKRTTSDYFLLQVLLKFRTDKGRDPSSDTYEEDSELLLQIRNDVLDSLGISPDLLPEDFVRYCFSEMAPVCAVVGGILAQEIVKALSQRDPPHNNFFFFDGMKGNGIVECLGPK
SUMO-activating enzyme, sequence (Q9UBT2 whole entry): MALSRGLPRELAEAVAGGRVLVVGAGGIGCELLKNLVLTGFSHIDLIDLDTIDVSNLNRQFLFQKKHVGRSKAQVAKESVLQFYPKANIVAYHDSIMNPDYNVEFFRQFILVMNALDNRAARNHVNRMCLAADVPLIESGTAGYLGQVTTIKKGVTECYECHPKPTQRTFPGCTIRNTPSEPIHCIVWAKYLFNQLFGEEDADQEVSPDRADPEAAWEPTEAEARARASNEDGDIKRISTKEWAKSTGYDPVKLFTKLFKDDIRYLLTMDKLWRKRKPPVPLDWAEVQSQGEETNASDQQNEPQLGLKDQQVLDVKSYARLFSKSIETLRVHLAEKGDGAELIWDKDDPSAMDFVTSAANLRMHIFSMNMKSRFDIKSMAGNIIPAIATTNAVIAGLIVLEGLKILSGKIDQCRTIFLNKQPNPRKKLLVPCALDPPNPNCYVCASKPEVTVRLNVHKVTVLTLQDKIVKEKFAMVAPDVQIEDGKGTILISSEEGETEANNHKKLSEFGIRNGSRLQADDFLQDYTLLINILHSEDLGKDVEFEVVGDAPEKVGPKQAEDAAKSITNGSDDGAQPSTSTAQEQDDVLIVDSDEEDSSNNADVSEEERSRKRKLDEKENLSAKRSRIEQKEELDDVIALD

One may read the IC50 as the midpoint of a concentration-inhibition curve. For `NS(=O)(=O)OC[C@H]1C[C@@H](Nc2ncncc2C(=O)c2cn(Cc3cccc(C(F)(F)F)c3)c3ccccc23)[C@H](O)[C@@H]1O`, the CC50 with HCT-116 came to 1240 nM; with THP-1, 1280 nM. The IC50 stood at 3180 nM on SUMO-activating enzyme and 12 nM against NEDD8 activating enzyme.

With `Cc1cccc(Cn2cc(C(=O)c3cncnc3N[C@@H]3C[C@H](COS(N)(=O)=O)[C@@H](O)[C@H]3O)c3cc(F)ccc32)c1`, the IC50 on SUMO-activating enzyme was 680 nM.

With `COc1cccc(Cn2cc(C(=O)c3cncnc3N[C@@H]3C[C@H](COS(N)(=O)=O)[C@@H](O)[C@H]3O)c3ccccc32)c1`, the CC50 was 431 nM in the test with HCT-116 and under 30 nM in the test with THP-1. Besides, the half-maximal inhibitory concentration (IC50) at SUMO-activating enzyme turned out to be 40 nM; at NEDD8 activating enzyme, 22 nM.

Take `N#Cc1cccc(Cn2cc(C(=O)c3cncnc3N[C@@H]3C[C@H](COS(N)(=O)=O)[C@@H](O)[C@H]3O)c3ccccc32)c1`: the CC50 in the test with HCT-116 came out at 15100 nM; in the test on THP-1 it was 13200 nM.

In the case of `NS(=O)(=O)OC[C@H]1C[C@@H](Nc2ncncc2C(=O)c2cn(Cc3ccc(C(F)(F)F)o3)c3ccccc23)[C@H](O)[C@@H]1O`, the CC50 in the test with HCT-116 is 2010 nM; in the test on THP-1, 813 nM. Besides, at SUMO-activating enzyme, the IC50 stood at 1290 nM.

Consider `NS(=O)(=O)OC[C@H]1C[C@@H](Nc2ncncc2C(=O)c2cn(Cc3cccc(F)c3)c3ccccc23)[C@H](O)[C@@H]1O`, for which the CC50 was 456 nM with HCT-116 and under 30 nM with THP-1. For the same compound, the figures for the half-maximal inhibitory concentration (IC50) at SUMO-activating enzyme and against NEDD8 activating enzyme were 1650 nM and 91 nM, respectively.

Consider `Cc1c(Cn2cc(C(=O)c3cncnc3N[C@@H]3C[C@H](COS(N)(=O)=O)[C@@H](O)[C@H]3O)c3cc(F)ccc32)cccc1C(F)(F)F`, for which the values for the IC50 at SUMO-activating enzyme and on NEDD8 activating enzyme were 990 nM and 112 nM, respectively.

For the compound `NS(=O)(=O)OC[C@H]1C[C@@H](Nc2ncncc2C(=O)c2cn(Cc3ccccc3F)c3ccccc23)[C@H](O)[C@@H]1O`, the CC50 was determined as 3120 nM with HCT-116 and 1000 nM with THP-1. Further, the IC50 on SUMO-activating enzyme stood at 2880 nM.

With `Cc1cc(Cn2cc(C(=O)c3cncnc3N[C@@H]3C[C@H](COS(N)(=O)=O)[C@@H](O)[C@H]3O)c3cc(F)ccc32)ccc1F`, the half-maximal inhibitory concentration (IC50) turned out to be 1720 nM on SUMO-activating enzyme and 15 nM on NEDD8 activating enzyme.

For `NS(=O)(=O)OC[C@H]1C[C@@H](Nc2ncncc2C(=O)c2cn(Cc3cc(Cl)ccc3Cl)c3ccccc23)[C@H](O)[C@@H]1O`, the CC50 with HCT-116 came out at 643 nM; with THP-1, 662 nM. At NEDD8 activating enzyme, the IC50 is 37 nM.

Take `NS(=O)(=O)OC[C@H]1C[C@@H](Nc2ncncc2C(=O)c2nn(Cc3cccc(Br)c3)c3ccccc23)[C@H](O)[C@@H]1O`: the 50% inhibitory concentration (IC50) at SUMO-activating enzyme came to 1700 nM.

With `NS(=O)(=O)OC[C@H]1C[C@@H](Nc2ncncc2C(=O)c2cn(Cc3cccc(Cl)c3)c3ccccc23)[C@H](O)[C@@H]1O`, the CC50 came to 790 nM in the test on HCT-116 and 600 nM in the test with THP-1. In addition, the 50% inhibitory concentration (IC50) at SUMO-activating enzyme is 460 nM; against NEDD8 activating enzyme it was 19 nM.

As to `NS(=O)(=O)OC[C@H]1C[C@@H](Nc2ncncc2C(=O)c2cn(Cc3cccc(Br)c3)c3ncccc23)[C@H](O)[C@@H]1O`, the CC50 in the test on HCT-116 came out at 2010 nM; in the test with THP-1, 813 nM. The half-maximal inhibitory concentration (IC50) on SUMO-activating enzyme stood at 661 nM.

For `NS(=O)(=O)OC[C@H]1C[C@@H](Nc2ncncc2C(=O)c2cn(Cc3ccccc3)c3ccccc23)C[C@@H]1O`, the IC50 is 560 nM on SUMO-activating enzyme and 0.6 nM against NEDD8 activating enzyme.

For `NS(=O)(=O)OC[C@H]1C[C@@H](Nc2ncncc2C(=O)c2cn(Cc3ccc(F)c(F)c3)c3ccccc23)[C@H](O)[C@@H]1O`, the values for the CC50 in the test with HCT-116 and in the test with THP-1 were 2280 nM and 1810 nM, respectively. In addition, the IC50 was 3480 nM at SUMO-activating enzyme and 20 nM against NEDD8 activating enzyme.

In the case of `NS(=O)(=O)OC[C@H]1C[C@@H](Nc2ncncc2C(=O)c2cn(CC3CCCCC3)c3ccccc23)[C@H](O)[C@@H]1O`, the IC50 on SUMO-activating enzyme was 1650 nM.

`NS(=O)(=O)OC[C@H]1C[C@@H](Nc2ncncc2C(=O)c2cn(Cc3ccc4ccccc4c3)c3ccc(F)cc23)[C@H](O)[C@@H]1O` registered a half-maximal inhibitory concentration (IC50) against NEDD8 activating enzyme of 141 nM.

`NS(=O)(=O)OC[C@H]1C[C@@H](Nc2ncncc2C(=O)c2cn(Cc3ccc(S(F)(F)(F)(F)F)cc3)c3ccc(F)cc23)[C@H](O)[C@@H]1O` came in with a half-inhibitory concentration (IC50) on NEDD8 activating enzyme of 10 nM.

For `NS(=O)(=O)OC[C@H]1C[C@@H](Nc2ncncc2C(=O)c2cn(Cc3cccc(Br)c3)c3ccccc23)[C@H](O)[C@@H]1O`, the CC50 is 934 nM with HCT-116 and 223 nM in the test on THP-1. Further, at SUMO-activating enzyme, the half-inhibitory concentration (IC50) stood at 100 nM.

Take `NS(=O)(=O)OC[C@H]1C[C@@H](Nc2ncncc2C(=O)c2cn(Cc3ccccc3)c3ccccc23)[C@H](O)[C@@H]1O`: the CC50 with HCT-116 is 228 nM; with THP-1, under 30 nM. The IC50 at SUMO-activating enzyme is 120 nM; against NEDD8 activating enzyme it was 5 nM.

Regarding `NS(=O)(=O)OC[C@H]1C[C@@H](Nc2ncncc2C(=O)c2cn(Cc3cc(C(F)(F)F)cc(C(F)(F)F)c3)c3ccccc23)[C@H](O)[C@@H]1O`, the CC50 with HCT-116 came out at 4120 nM; in the test with THP-1, 2780 nM.

As to `NS(=O)(=O)OC[C@H]1C[C@@H](Nc2ncncc2C(=O)c2cn(Cc3cccc(N4CCOCC4)c3)c3ccc(F)cc23)[C@H](O)[C@@H]1O`, the results for the IC50 at SUMO-activating enzyme and against NEDD8 activating enzyme were over 10000 nM and 13 nM, respectively.

With `NS(=O)(=O)OC[C@H]1C[C@@H](Nc2ncncc2C(=O)c2cn(Cc3cccc(Br)c3)c3ccc(F)cc23)[C@H](O)[C@@H]1O`, the results for the CC50 in the test on HCT-116 and in the test with THP-1 were 1010 nM and 896 nM, respectively. Besides, the IC50 at SUMO-activating enzyme was 530 nM; on NEDD8 activating enzyme it was 0.9 nM.

Consider `NS(=O)(=O)OC[C@H]1C[C@@H](Nc2ncncc2C(=O)c2cn(Cc3ccc(F)cc3F)c3ccccc23)[C@H](O)[C@@H]1O`, for which the CC50 in the test on HCT-116 was determined as 1480 nM; in the test on THP-1, 1560 nM. For the same compound, the IC50 turned out to be 30 nM on SUMO-activating enzyme and 8 nM against NEDD8 activating enzyme.

For the compound `Cc1cccc(Cn2cc(C(=O)c3cncnc3N[C@@H]3C[C@H](COS(N)(=O)=O)[C@@H](O)[C@H]3O)c3ccccc32)n1`, the CC50 in the test with HCT-116 amounted to 413 nM; with THP-1, 55.3 nM. Also, the half-maximal inhibitory concentration (IC50) on SUMO-activating enzyme came out at 2210 nM.

As to `NS(=O)(=O)OC[C@H]1C[C@@H](Nc2ncncc2C(=O)c2cn(Cc3ccccc3)c3ccccc23)[C@@H](F)[C@@H]1O`, on SUMO-activating enzyme, the concentration for half-maximal inhibition (IC50) worked out at 1840 nM.

Turning to `NS(=O)(=O)OC[C@H]1C[C@@H](Nc2ncncc2C(=O)c2cn(Cc3ccc(F)c(Cl)c3)c3ccccc23)[C@H](O)[C@@H]1O`, the CC50 worked out at 1800 nM in the test on HCT-116 and 1430 nM with THP-1. Also, the IC50 on SUMO-activating enzyme is 1600 nM.

With `NS(=O)(=O)OC[C@H]1C[C@@H](Nc2ncncc2C(=O)c2cn(Cc3cccc(I)c3)c3ccccc23)[C@H](O)[C@@H]1O`, the CC50 in the test on HCT-116 was found to be 587 nM; with THP-1, 163 nM. Moreover, the half-inhibitory concentration (IC50) at SUMO-activating enzyme amounted to 470 nM.

For the compound `C/C=C/Cn1cc(C(=O)c2cncnc2NC2C[C@H](COS(N)(=O)=O)[C@@H](O)[C@H]2O)c2ccccc21` (single isomer, unassigned), the IC50 at SUMO-activating enzyme turned out to be 1860 nM.
